In ChEMBL document CHEMBL1629567, “Pharmacodynamics of cidofovir for vaccinia virus infection in an in vitro hollow-fiber infection model system” (Antimicrob Agents Chemother, 2009):
Calls of active or inactive are those of the source. No cut-off for these calls is given here.

Columns and labels:
Vaccinia virus [1] = assay: Antiviral activity against Vaccinia virus WR harboring HIV gag gene infected in HeLaS3 cells at 100 uM administered as intermittent infusion over 1 hr measured in hollow-fiber infection model after 72 hrs by ELISA; type: functional, organism-based; conditions: Orthopoxvirus vaccinia, HeLa S3
Vaccinia virus [2] = assay: Antiviral activity against Vaccinia virus WR harboring HIV gag gene infected in HeLaS3 cells at 30 uM as continuous infusion in hollow-fiber infection model after 72 hrs by ELISA; type: functional, organism-based; conditions: Orthopoxvirus vaccinia, HeLa S3
Vaccinia virus [3] = assay: Antiviral activity against Vaccinia virus WR harboring the HIV gag gene infected in HeLaS3 cells assessed as inhibition of viral replication in hollow-fiber infection model by plaque assay; type: functional, organism-based; conditions: Orthopoxvirus vaccinia, HeLa S3
Vaccinia virus [4] = assay: Antiviral activity against Vaccinia virus WR harboring the HIV gag gene infected in HeLaS3 cells assessed as inhibition of viral replication in hollow-fiber infection model at >= 50 uM as continuous infusion by plaque assay; type: functional, organism-based; conditions: Orthopoxvirus vaccinia, HeLa S3
Vaccinia virus [5] = assay: Antiviral activity against Vaccinia virus WR harboring HIV gag gene infected in HeLaS3 cells at 3 uM administered as intermittent infusion over 1 hr measured after 72 hrs in hollow-fiber infection model by ELISA; type: functional, organism-based; conditions: Orthopoxvirus vaccinia, HeLa S3
Vaccinia virus [6] = assay: Antiviral activity against Vaccinia virus WR harboring HIV gag gene infected in HeLaS3 cells at 3 uM as continuous infusion in hollow-fiber infection model after 72 hrs by ELISA; type: functional, organism-based; conditions: Orthopoxvirus vaccinia, HeLa S3
Vaccinia virus [7] = assay: Antiviral activity against Vaccinia virus WR harboring HIV gag gene infected in HeLaS3 cells compound administered as bolus infusion equivalent to 100 uM continuous infusion in hollow-fiber infection model after 72 hrs by ELISA; type: functional, Orthopoxvirus vaccinia, HeLa S3
Vaccinia virus [8] = assay: Antiviral activity against Vaccinia virus WR harboring the HIV gag gene infected in HeLaS3 cells after 3 to 5 days by plaque assay; type: functional, organism-based; conditions: Orthopoxvirus vaccinia, HeLa S3
Vaccinia virus [9] = assay: Antiviral activity against Vaccinia virus WR harboring HIV gag gene infected in HeLaS3 cells at 100 uM as continuous infusion in hollow-fiber infection model after 72 hrs by ELISA; type: functional, organism-based; conditions: Orthopoxvirus vaccinia, HeLa S3
Vaccinia virus [10] = assay: Antiviral activity against Vaccinia virus WR harboring HIV gag gene infected in HeLaS3 cells at 30 uM administered as intermittent infusion over 1 hr measured in hollow-fiber infection model after 72 hrs by ELISA; type: functional, organism-based; conditions: Orthopoxvirus vaccinia, HeLa S3

In the case of `Nc1ccn(C[C@@H](CO)OCP(=O)(O)O)c(=O)n1.O.O` [CIDOFOVIR], the Activity (Vaccinia virus [1]) is reported as “inactive”, the Activity (Vaccinia virus [2]) is reported as “inactive” and the IC50 (Vaccinia virus [3]) is reported as 38 µM. The inhibition (Vaccinia virus [4]) was “Active”, the Activity (Vaccinia virus [5]) was “inactive” and the Activity (Vaccinia virus [6]) was “inactive”. For the same compound, the Activity (Vaccinia virus [7]) was 81%, the EC50 (Vaccinia virus [8]) was 30.9 µM and the Activity (Vaccinia virus [9]) was “inactive”. The Activity (Vaccinia virus [10]) was “inactive”.
